For data set [1], the system named is HCV replicon cells Huh 9B. Description: Tox assay (methylene blue staining of replicon cells). The format is cell-based. The following applies: Huh 9B replicon cells, 72 h incubation, methylene blue absorbance at 620 nm. The method, then:
(§1) HCV replicon cells Huh 9B (ReBlikon), containing the firefly luciferase—ubiquitin—neomycin phosphotransferase fusion protein and EMCV-IRES driven HCV polyprotein with cell culture adaptive mutations.
(§2) Cells were cultured at 37° C. in a 5% CO2 environment and split twice a week on seeding at 2×10E6 cells/flask on day 1 and 1×10E6 3 days later. Some 0.25 mg/ml G418 was added to the culture medium (125 ul per 25 ml) but not the assay medium.
(§3) The culture medium consisted of DMEM with […] glucose and glutamax (Gibco 61965-026) supplemented with 1× non-essential amino acids, penicillin (100 IU/ml) / streptomycin (100 μg/ml), FCS (10%, 50 ml) and 1 mg/ml G418 (Invitrogen cat no 10131-027) & 10% foetal calf serum.
(§4) A flask of cells was trypsinised and a cell count carried out. Cells were diluted to 100,000 cells/ml and 100 μl of this used to seed one opaque white 96-well plate (for the replicon assay) and one flat-bottomed clear plate (for the tox assay) for every seven compounds to be tested for IC50. Wells G12 and H12 were left empty in the clear plate as the blank. Plates were then incubated at 37° C. in a 5% CO2 environment for 24 h.
(§5) On the following day compound dilutions are made up in medium at twice their desired final concentration in a clear round bottomed plate. All dilutions have a final DMSO concentration of 1%.
Once the dilution plate had been made up, controls and compounds were transferred to the assay plate (containing the cells) at 100 μl/well in duplicate plates. Exception: in the white (replicon) plate, no compound was added to wells A1 and A2 and 100 μl of 1% DMSO was added to these instead. In the clear (Tox) plate, wells E12 & F12 only contained the DMSO control. […]
The clear plate was stained with 100 μl 0.5% methylene blue in 50% ethanol at RT for 1 h, followed by solvation of the absorbed methylene blue in 100 μl per well of 1% lauroylsarcosine. Absorbance of the plate was measured on a microplate spectrophotometer (Molecular Devices) and the absorbance for each concentration of compound expressed as a proportion of the relative DMSO control. […]
A general note: A replicon is a self-replicating genome or part of one, used to study replication in cells.

The subject of data set [2] is HCV replicon cells Huh 9B. Kind of data set: HCV replicon luciferase assay. The format is cell-based. The following applies: Hepatitis C virus; Huh 9B replicon cells, 72 h incubation, luciferase readout. How it is done: as §1, §2, §3, §4, §5
Once the dilution plate had been made up, controls and compounds were transferred to the assay plate (containing the cells) at 100 μl/well in duplicate plates. Exception: in the white (replicon) plate, no compound was added to wells A1 and A2 and 100 μl of 1% DMSO was added to these instead. In the clear (Tox) plate, wells E12 & F12 only contained the DMSO control. Plates were then incubated at 37° C. with 5% CO2 for 72 h.
At the end of the incubation time, the cells in the white plate were harvested by washing with 200 μl/well of warm (37° C.) PBS and lysed with 20 μl cell culture lysis buffer (Promega). […]

Molecules are shown by their SMILES.

By IC50 is commonly meant the concentration that gives 50% inhibition. A higher IC50 goes with lower potency. Turning to `c1nc(Nc2ccc(N3CCOCC3)cc2)c2cc(-c3ccc4ncnc(Nc5ccc(N6CCOCC6)cc5)c4c3)ccc2n1` [Example 1, N-(4-morpholinophenyl)-6-(4-(4-morpholinophenylamino)quinazolin-6-yl)quinazolin-4-amine], the “Replicon TD50” value in data set [1] was “*** (>25 uM = ***)”. This compound also came in with an IC50 in data set [2] below 1000 nM.
In the case of `c1ccc(Nc2ncnc3ccc(-c4ccc5ncnc(Nc6ccc(N7CCOCC7)cc6)c5c4)cc23)cc1` [Example 2, N*4*-(4-Morpholin-4-yl-phenyl)-N*4′*-phenyl-[6,6′]biquinazolinyl-4,4′-diamine], the “Replicon TD50” value in data set [1] was “*** (>25 uM = ***)”. Besides, the IC50 in data set [2] is below 1000 nM.
As to `c1nc(Nc2ccc(-n3cncn3)cc2)c2cc(-c3ccc4ncnc(Nc5ccc(-n6cncn6)cc5)c4c3)ccc2n1` [Example 3, N*4*,N*4′*-Bis-(4-[1,2,4]triazol-1-yl-phenyl)-[6,6′]biquinazolinyl-4,4′-diamine], the “Replicon TD50” value in data set [1] was “*** (>25 uM = ***)”. Besides, the IC50 in data set [2] is below 1000 nM.
